Test results as given in publication PMC1500811, “Neofunctionalization in Vertebrates: The Example of Retinoic Acid Receptors” (PLoS Genetics, 2006).

Experiments:
AmphiRAR [1] = target: T1, AmphiRAR (Branchiostoma floridae, UniProt Q8MX80); assay: limited trypsin proteolysis of in vitro-translated receptor; type: binding; parameters: LBD from Ser154 fused to Gal4 residues 1-147; in vitro translated for proteolysis; settings: ligand 10^-4 to 10^-5 M, room temperature
PmRAR [2] = target: T2, PmRAR (Polyandrocarpa misakiensis, UniProt K7ZRU3); assay: as above; type: binding; parameters: gene Pm-RAR; LBD fused to Gal4 residues 1-147; in vitro translated for proteolysis; settings: ligand 10^-4 to 10^-5 M, room temperature
T2 sequence (K7ZRU3 208-503 limits assumed): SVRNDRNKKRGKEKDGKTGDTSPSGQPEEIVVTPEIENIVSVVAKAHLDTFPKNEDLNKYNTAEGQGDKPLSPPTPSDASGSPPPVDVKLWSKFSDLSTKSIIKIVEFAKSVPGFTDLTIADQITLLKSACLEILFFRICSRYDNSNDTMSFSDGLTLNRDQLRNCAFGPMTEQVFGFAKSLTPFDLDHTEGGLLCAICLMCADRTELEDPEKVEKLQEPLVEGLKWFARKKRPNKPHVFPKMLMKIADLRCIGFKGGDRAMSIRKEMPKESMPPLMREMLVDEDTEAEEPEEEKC

zfRARγ = test system: T3, zfRARγ; assay: Gal4-RAR(LBD) luciferase transactivation in Cos-1 cells; type: cell-based, Danio rerio; settings: agonist; one collective range given for all chordate RARs
T3 construct: gene rarga; LBD fused to Gal4 residues 1-147; in vitro translated for proteolysis

xRARβ = test system: T4, xRARβ; assay: as above; type: cell-based, Xenopus laevis; settings: agonist; one collective range given for all chordate RARs
T4 construct: gene rarb; LBD fused to Gal4 residues 1-147; in vitro translated for proteolysis

PmRAR [3] = target: T2, PmRAR; assay: as above; type: cell-based; parameters: gene Pm-RAR; LBD fused to Gal4 residues 1-147; settings: agonist; one collective range given for all chordate RARs
xRARα = target: T5, xRARα (Xenopus laevis, UniProt P51126); assay: as above; type: cell-based; settings: agonist; one collective range given for all chordate RARs
T5 construct: gene rara; LBD fused to Gal4 residues 1-147; in vitro translated for proteolysis
T5 sequence (P51126 155-458 limits assumed): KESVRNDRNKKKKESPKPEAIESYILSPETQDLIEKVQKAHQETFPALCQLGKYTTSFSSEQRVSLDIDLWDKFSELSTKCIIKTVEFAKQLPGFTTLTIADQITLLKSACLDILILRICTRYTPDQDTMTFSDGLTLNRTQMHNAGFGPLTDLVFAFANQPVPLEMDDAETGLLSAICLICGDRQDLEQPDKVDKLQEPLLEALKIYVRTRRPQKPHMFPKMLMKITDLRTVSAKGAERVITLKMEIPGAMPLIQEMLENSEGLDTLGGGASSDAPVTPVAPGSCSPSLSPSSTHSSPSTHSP

AncRAR = test system: T6, AncRAR; assay: as above; type: cell-based, synthetic construct; settings: agonist; one collective range given for all chordate RARs
T6 construct: maximum-likelihood reconstructed LBD fused to Gal4 residues 1-147
Excerpt: Gal4-RAR(LBD) luciferase transactivation in Cos-1 cells on AncRAR | all the chordate RARs, including the reconstructed AncRAR, are able to transactivate in a dose-dependent manner

xRARγ = target: T7, xRARγ (Xenopus laevis, UniProt P28699); assay: as above; type: cell-based; settings: agonist; one collective range given for all chordate RARs
T7 construct: gene rarg; LBD fused to Gal4 residues 1-147; in vitro translated for proteolysis
T7 sequence (P28699 166-476 limits assumed): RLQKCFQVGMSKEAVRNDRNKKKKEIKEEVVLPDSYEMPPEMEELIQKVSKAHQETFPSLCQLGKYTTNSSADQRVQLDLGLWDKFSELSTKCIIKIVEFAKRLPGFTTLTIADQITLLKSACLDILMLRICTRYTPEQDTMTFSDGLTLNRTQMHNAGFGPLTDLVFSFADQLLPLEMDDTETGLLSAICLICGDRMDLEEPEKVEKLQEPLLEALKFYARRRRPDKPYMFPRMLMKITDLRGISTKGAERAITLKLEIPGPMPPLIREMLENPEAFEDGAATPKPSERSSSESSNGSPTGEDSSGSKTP

zfRARα = test system: T8, zfRARα; assay: as above; type: cell-based, Danio rerio; settings: agonist; one collective range given for all chordate RARs
T8 construct: gene raraa; LBD fused to Gal4 residues 1-147; in vitro translated for proteolysis

AmphiRAR [4] = target: T1, AmphiRAR; assay: as above; type: cell-based; parameters: LBD from Ser154 fused to Gal4 residues 1-147; settings: agonist; one collective range given for all chordate RARs

T1 sequence (Q8MX80 entry or part of it): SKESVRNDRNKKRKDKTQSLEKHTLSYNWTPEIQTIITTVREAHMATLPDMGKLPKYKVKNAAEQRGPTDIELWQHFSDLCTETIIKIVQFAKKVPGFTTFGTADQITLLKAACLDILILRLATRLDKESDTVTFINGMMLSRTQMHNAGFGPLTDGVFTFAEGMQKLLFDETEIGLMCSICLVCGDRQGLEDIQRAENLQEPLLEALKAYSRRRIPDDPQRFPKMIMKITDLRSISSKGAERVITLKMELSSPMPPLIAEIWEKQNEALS

Structure (SMILES): CC1(C)C(=O)C(C)(C)c2cc(C(=O)Nc3ccc(C(=O)O)cc3)ccc21 [BMS753]
- limited trypsin proteolysis of in vitro-translated receptor (AmphiRAR [1]): It also binds the α-specific compound (BMS753) (Figure 4F)

Structure (SMILES): CC1(C)CC=C(c2ccccc2)c2cc(/C=C/c3ccc(C(=O)O)cc3Cl)ccc21 [BMS641]
- limited trypsin proteolysis of in vitro-translated receptor (PmRAR [2]): both PmRAR and AncRAR are able to bind weakly the β-specific retinoid (BMS641)

Structure (SMILES): CC1=C(/C=C/C(C)=C/C=C/C(C)=C/C(=O)O)C(C)(C)CCC1 [ATRA]
- EC50 (zfRARγ): ~ 10^−9 to 10^−8 M
- EC50 (xRARβ): ~ 10^−9 to 10^−8 M
- EC50 (PmRAR [3]): ~ 10^−9 to 10^−8 M
- EC50 (xRARα): ~ 10^−9 to 10^−8 M
- EC50 (AncRAR): ~ 10^−9 to 10^−8 M
- EC50 (xRARγ): ~ 10^−9 to 10^−8 M
- EC50 (zfRARα): ~ 10^−9 to 10^−8 M
- EC50 (AmphiRAR [4]): ~ 10^−9 to 10^−8 M
